US12291508B2, “Hydrazide containing nuclear transport modulators and uses thereof” (Karyopharm Therapeutics Inc., priority 2011, dated 2025)
Where a name gives a salt, the structure may show the parent alone. Read-outs that look alike come from different tables or passages of the source.

Legend:
[1] = system: MCF12A; test: Cell proliferation assay, MCF12A; format: cell-based; conditions: Homo sapiens, MCF-12A, type BaB, 72 h
Experimental: (§1) The cells were seeded at 5×10^3 to 1.5×10^4 cells (depending on cell type) in each well of a 96-well plate in 100 μL of fresh culture medium and adherent cells were allowed to attach overnight. The stock solutions of the compounds were diluted in cell culture medium to obtain eight concentrations of each drug, ranging from 1 nM to 30 μM and DMSO at less than 1% v/v was used as a negative control. The resulting drug solutions were transferred onto the cells. After 72 h of treatment, 20 μl of CellTiter 96® AQueous reagent was added into each well of the 96-well assay plates and the plate was incubated at 37° C. for 1-4 hours in a humidified, 5% CO2 atmosphere. Then the absorbance of each well was recorded at 490 nm using a 96-well plate reader. In most cases, the assay was performed in triplicate and the results were presented as half maximal inhibitory concentration (IC50).

[2] = system: HS578T; test: Cell proliferation assay, HS578T; format: cell-based; conditions: Homo sapiens, Hs-578T, type BaB, 72 h
Experimental: as §1

[3] = system: MDA-MB-468 TNBC Basal A cells; test: Nuclear localization of FOXO3a and IκB, MDA-MB-468; format: cell-based; conditions: MDA-MB-468, 1 μM, 24 hours
Experimental: MDA-MB-468 TNBC Basal A and BT-20 TNBC Basal B cells were exposed to DMSO or 1 μM Compound 1-3 for 24 hours and then stained for FOXO3a or IκB with or without DAPI nuclear stain. The stained cells were examined for nuclear localization.

[4] = system: BT-20; test: Cell proliferation assay, BT-20; format: cell-based; conditions: Homo sapiens; BT-20, type BaA, 72 h
Experimental: as §1

[5] = system: MDA-MB-468 triple negative breast cancer cells; conditions: oral, day 33 post inoculation
Experimental: MDA-MB-468 (ATCC #HTB-132)triple negative breast cancer cells were obtained from ATCC. These cells were grown in Leibovitz's L-15 medium supplemented with 10% fetal calf serum (FCS), 1% penicillin and streptomycin, and 2 mM L-glutamine. Cells were sub-cultured by dilution at a ratio of 1:3. Fifty (50) female SCID mice (Charles River Labs), aged 5 to 6 weeks, with a mean pre-treatment body weight of 19.2 grams were used. SCID mice were inoculated s.c. in the left flank with 5×10^6 MDA-MB-468 cells. When the tumors reached a mean size of between 100 and 200 mm^3, mice were randomly and prospectively divided into a vehicle control group of ten (10) mice and five treatment groups of eight (8) mice per group.
All administrations were via the oral route. Animals were fed with sterile Labdiet® 5053 (pre-sterilized) rodent chow and sterile water was provided ad libitum. Tumors were measured once every two days with micro-calipers, and tumor volume was calculated as (length×width×width)/2. All animals were weighed every day in order to assess differences in weight among treatment groups and monitor wellness of animals. […] Any animals with a tumor over 1500 mm^3 in volume were also euthanized. Survival was recorded daily. […] Statistical differences between treatment groups were determined using Mann-Whitney Rank Sum or ANOVA tests with a critical value of 0.05.

[6] = system: MDA-MB-468 cells; test: Anti-apoptosis and cell cycle proteins immunoblot, MDA-MB-468; format: cell-based; conditions: MDA-MB-468, increasing concentrations, 24 hours
[7] = system: MDA-MB-157; test: Cell proliferation assay, MDA-MB-157; format: cell-based; conditions: Homo sapiens; MDA-MB-157, type BaB, 72 h
Experimental: as §1

[8] = system: BT-549; test: Cell proliferation assay, BT-549; format: cell-based; conditions: Homo sapiens; BT-549, type BaB, 72 h
Experimental: as §1

[9] = system: HS578T cells; test: Long-term growth assay, HS578T; format: cell-based; conditions: 1 μM, 7 days, crystal violet
From the text: At the end of the assay, media was removed from the cells and the remaining cells were stained with crystal violet.

[10] = system: MDA-MB-468 TNBC cells; test: Apoptosis marker immunoblot, MDA-MB-468; format: cell-based; conditions: MDA-MB-468, 0 to 10 μM, 24 hours
Experimental: MDA-MB-468 TNBC, DU4475 and HS578T TNBC cells were exposed to concentrations of Compound 1-3 ranging from 0 to 10 μM for 24 hours. After 24 hours, whole protein cell extracts were run on immunoblots and were exposed to antibodies against the proteins indicated in FIGS. 2A-2C.

[11] = system: HCC-1143; test: Cell proliferation assay, HCC-1143; format: cell-based; conditions: Homo sapiens, HCC1143; HCC-1143, type BaA, 72 h
Experimental: as §1

[12] = system: Zucker rats; format: in vivo; conditions: orally administered at 0.625, 1.25 and 2.5 mg/kg
Experimental: For novel object recognition test, Zucker rats were placed into a test chamber (dimension 26″×18″×18″; L×W×H). Food and water was not be permitted during the test. The test had 3 phases: a) Familiarisation phase: Rats were singly placed in test chamber and allowed to freely explore for 60 min. The distance travelled by the animal during this phase was recorded using tracking software (AnyMaze system). The purpose of this phase was to familiarise the animals to the test apparatus. […] The distance travelled by the animal during this sample phase was automatically recorded, as well as the time spent by the animal interacting with the novel objects, using a tracking software system and visual observation. […] The distance travelled by the animal during the test phase was automatically recorded, as well as the time spent by the animal interacting with the novel and familiar objects, using a tracking software system and visual observation. Object interaction scores during both the sample and test phase were independently recorded by 2 observers. The final score represents the difference score between each reading. […]

## O=C(/C=C\n1cnc(-c2cc(C(F)(F)F)cc(C(F)(F)F)c2)n1)NNc1cnccn1 [Compound I-3, (Z)-3-(3-(3,5-bis(trifluoromethyl)phenyl)-1H-1,2,4-triazol-1-yl)-N′-(pyrazin-2-yl)acrylohydrazide]
[1]
  IC50: 150 nM
[2]
  IC50: 1500 nM
[3]
  localization of FOXO3a and IκB: both FOXO3a and IκB were localized in the cell nucleus
[4]
  IC50: 1500 nM
[5]; 5 mg/kg Monday, Wednesday, Friday
  inhibition of tumor growth compared with vehicle-treated animals: approximately 60%
[5]; 25 mg/kg Monday, Thursday regimen
  inhibition of tumor growth compared with vehicle-treated animals: ~100%
[6]
  MCL-1 protein level: a reduction in MCL-1 is observed
[7]
  IC50: 1300 nM
[8]
  IC50: 20 nM
[9]
  long-term growth: inhibited the long-term growth
[10]
  apoptosis (PARP, caspase 3, cleaved PARP, cleaved caspase 3): induces apoptosis
[11]
  IC50: 600 nM

## O=C(/C=C\n1cnc(-c2cc(C(F)(F)F)cc(C(F)(F)F)c2)n1)NNc1ccccn1 [Compound I-4, (Z)-3-(3-(3,5-bis(trifluoromethyl)phenyl)-1H-1,2,4-triazol-1-yl)-N′-(pyridin-2-yl)acrylohydrazide hydrochloride]
[12]
  novel object recognition (object preference): induced trends of improved novel object recognition
